According to patent US6410012B1, “Antimicrobial mediated bacterial DNA delivery” (The United States of America as represented by the …, priority 1997, dated 2002):

What was measured:
[1] = system: BHK cells; assay: β-galactosidase activity in lysates of BHK cells infected with Shigella strains (plasmid DNA delivery); assay type: cell-based, baby hamster; conditions: for ability of the antimicrobial to mediate bacterial plasmid DNA delivery: attenuated Shigella flexneri not programmed to lyse, in BHK cells
Experimental: (§1) The protocol used for these experiments consisted of diluting an overnight culture of the bacteria 1 in 50 and allowing it to grow to midlog phase, approximately 2.5 hours. The midlog cultures were then concentrated in Hank's Balanced Salts by centrifugation to approximately 10^9 bacteria per milliliter and a small aliquot was taken to determine the midlog bacterial count. Two milliliters of bacteria were added to the appropriate semi-confluent flask of BHK cells and allowed to incubate for ninety minutes at 37° C. and 5% CO2. After the incubation, the cells were rinsed with Hank's Balanced Salts (Sigma). In most cases the flasks were treated with complete DMEM containing […] gentamicin to kill all extracellular bacteria. Either antibiotic was then added at the designated time.
Harvesting of cells was carried out as follows. At the appropriate time point media was removed from the flasks and the flasks were rinsed thoroughly with Hank's Balanced Salts followed by Edda Twiddy's EDTA. Flasks were then treated with 5 milliliters of Trypsin-EDTA for 5 minutes at 37° C. and 5% CO2 to lift the adherent mammalian cells from the flask. Ten milliliters of room temperature DMEM with serum was added to inactivate the Trypsin-EDTA. The cells were pelleted at 2000 rpm for 12 minutes at room temperature and resuspended in 10 milliliters of phosphate buffered saline (PBS).
A 100 μl aliquot was taken and diluted in 0.1 % Triton X-100 and plated on diaminopimelic acid (DAP) supplemented congo red (Sigma) tryptic soy agar for 15D or TSA without DAP for SC602. The remainder was again pelleted and resuspended in 1.3 ml PM-2 buffer. 30 μl of 10% Triton X-100 was added and the sample was incubated at room temperature and vortexed frequently for ten minutes to lyse the BHK cells. The cellular debris was pelleted for […] at 13500×g and 4° C.
Four hundred microliters of the supernatant was combined with 400 μl of PM-2 buffer in a spectrophotometric cuvette and allowed to equilibrate to 37° C. 200 μl of ONPG reagent is then added to each sample and any applicable standards. The samples were incubated at 37° C. and timed until a vibrant yellow color appeared, at which point the reaction was complete. The absorbance of each sample was measured at 420 nm and recorded. β-galactosidase activity was calculated as Ab420×380/Time (minutes). To determine the total amount of protein present in each assayed sample 200 μl of cold (−20° C.) acetone was added to 50 μl of the above supernatants, vortexed thoroughly and stored at −20° C. for 30 minutes. The samples were then pelleted for 10 minutes at 14000 rpm and the supernatant was discarded. Samples were allowed to dry in a heated evacuating centrifuge and then resuspended in 50 μl dissociation buffer. The protein concentration was then determined using a standard BCA (Pierce) protein determination protocol. Results are reported as β-galactosidase activity per mg of protein.

[2] = system: BHK cells; assay: viable bacterial counts recovered from infected BHK cells; assay type: cell-based, baby hamster
Experimental: as §1
Harvesting of cells was carried out as follows. At the appropriate time point media was removed from the flasks and the flasks were rinsed thoroughly with Hank's Balanced Salts followed by Edda Twiddy's EDTA. Flasks were then treated with 5 milliliters of Trypsin-EDTA for 5 minutes at 37° C. and 5% CO2 to lift the adherent mammalian cells from the flask. Ten milliliters of room temperature DMEM with serum was added to inactivate the Trypsin-EDTA. The cells were pelleted at 2000 rpm for 12 minutes at room temperature and resuspended in 10 milliliters of phosphate buffered saline (PBS). […]

Row | SMILES | effect of time of addition on β-galactosidase activity ([1]; addition 1 to 2 hours after adherence/invasion compared to just after, SC602(pCMVβ)) | ability of the antimicrobial to mediate bacterial plasmid DNA delivery ([1]; SC602(pCMVβ)) | effect on number of viable bacteria ([2]; after the addition of azithromycin to infected BHK cells) | effect on delivery of plasmid DNA by 15D(pCMVβ) ([1]; 15D(pCMVβ) infected monolayers treated just after the adherence/invasion step) | effect on β-galactosidase activity ([1]; 15D(pCMVβ) infected BHK cells, treated at various times after the adherence/invasion step) | loss of viable bacteria ([2]; 15D(pCMVβ) infected BHK cells, treatment right after to two hours after the adherence/invasion step) [log]
1 | CC[C@H]1OC(=O)[C@H](C)[C@@H](O[C@H]2C[C@@](C)(OC)[C@@H](O)[C@H](C)O2)[C@H](C)[C@@H](O[C@@H]2O[C@H](C)C[C@H](N(C)C)[C@H]2O)[C@](C)(O)C[C@@H](C)CN(C)[C@H](C)[C@@H](O)[C@]1(C)O [azithromycin] | greatly increased the amount of β-galactosidase activity | capable of mediating bacterial-based plasmid DNA delivery | no dramatic decrease in the number of viable bacteria was detected |  |  | 
2 | O=C(O)c1cn(C2CC2)c2cc(N3CCNCC3)c(F)cc2c1=O [ciprofloxacin] |  | unable to mediate DNA delivery |  | inhibited delivery of the plasmid DNA |  | 
3 | C[C@@H]1C[C@@H]([C@H](O)CC2CC(=O)NC(=O)C2)C(=O)[C@@H](C)C1 [cyclohexamide] |  |  |  |  | inhibition of β-galactosidase activity | 1
